The values below are quoted from earlier work in US20120046351A1, “Medicinal cannabis added in food” (priority 2010, published 2012).

SMILES strings stand for the structures.

The conditions of data set [1]: 180 degrees C.
The subject of data set [2] is people who use cannabis. The settings on record: compared with the no cannabinoid and the TCH+CBD groups.

On to `CCCCCc1cc(O)c2c(c1)OC(C)(C)[C@@H]1CCC(C)=C[C@@H]21` [Δ^9-THC, Tetrahydrocannabinol], for which, in data set [1], the “degradation of Δ^9-THC into cannabinol and dihydrocannabinol” value was “A significant percentage of Δ^9-THC being degraded”. The positive schizophrenia-like symptoms result in data set [2] is “higher levels of positive schizophrenia-like symptoms”.
